In ChEMBL document CHEMBL1201861, “Genomics of Drug Sensitity in Cancer screening data, Wellcome Trust Sanger Institute”:

What was measured:
Test in all cases: cells
[1] = system: COR-L105; type: functional, cell-based, Homo sapiens; settings: Homo sapiens, COR-L105;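 further: cell growth inhibition determined with a viability assay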
Description: SANGER: Inhibition of human COR-L105 cell growth in a cell viability assay.

[2] = system: Ca9-22; type: functional, cell-based, Homo sapiens; settings: Homo sapiens, Ca9-22;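 further: growth inhibition of Ca9-22 cells, read out with a cell viability assay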
Description: SANGER: Inhibition of human Ca9-22 cell growth in a cell viability assay.

[3] = system: EW-22; type: functional, cell-based, Homo sapiens; settings: Homo sapiens, EW-22;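 further: growth inhibition of the EW-22 cell line, measured with a cell viability readout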
Description: SANGER: Inhibition of human EW-22 cell growth in a cell viability assay.

[4] = system: GP5d; type: functional, cell-based, Homo sapiens; settings: Homo sapiens, GP5d;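 further: growth inhibition of human GP5d cells, read out with a cell viability assay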
Description: SANGER: Inhibition of human GP5d cell growth in a cell viability assay.

[5] = system: HT-29; type: functional, cell-based, Homo sapiens; settings: Homo sapiens, HT-29;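 further: growth inhibition of human HT-29 cells, read out by a cell viability assay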
Description: SANGER: Inhibition of human HT-29 cell growth in a cell viability assay.

[6] = system: HT-3; type: functional, cell-based, Homo sapiens; settings: Homo sapiens, HT-3;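 further: growth inhibition measured with a cell viability readout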
Description: SANGER: Inhibition of human HT-3 cell growth in a cell viability assay.

[7] = system: LCLC-103H cell line; type: functional, cell-based, Homo sapiens; settings: Homo sapiens, LCLC-103H
Description: SANGER: Inhibition of human LCLC-103H cell growth in a cell viability assay.

[8] = system: M14; type: functional, cell-based, Homo sapiens; settings: Homo sapiens, M14;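 further: growth inhibition of M14 cells, read out with a cell viability assay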
Description: SANGER: Inhibition of human M14 cell growth in a cell viability assay.

[9] = system: NB7; type: functional, cell-based, Homo sapiens; settings: Homo sapiens, NB7;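 further: growth inhibition of NB7 cells, read out with a cell viability assay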
Description: SANGER: Inhibition of human NB7 cell growth in a cell viability assay.

[10] = system: NCI-H1651; type: functional, cell-based, Homo sapiens; settings: Homo sapiens, NCI-H1651;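 further: Read-out is a cell viability assay, with IC50 expressing inhibition of NCI-H1651 cell growth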
Description: SANGER: Inhibition of human NCI-H1651 cell growth in a cell viability assay.

[11] = system: NCI-H1793; type: functional, cell-based, Homo sapiens; settings: Homo sapiens, NCI-H1793;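 further: cell growth inhibition, read out by a cell viability assay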
Description: SANGER: Inhibition of human NCI-H1793 cell growth in a cell viability assay.

[12] = system: NCI-H2342; type: functional, cell-based, Homo sapiens; settings: Homo sapiens, NCI-H2342;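 further: growth inhibition of the cancer cell line, determined with a cell viability assay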
Description: SANGER: Inhibition of human NCI-H2342 cell growth in a cell viability assay.

[13] = system: NCI-H28; type: functional, cell-based, Homo sapiens; settings: Homo sapiens, NCI-H28;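 further: growth inhibition of human NCI-H28 cells, read out as cell viability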
Description: SANGER: Inhibition of human NCI-H28 cell growth in a cell viability assay.

[14] = system: NCI-H358; type: functional, cell-based, Homo sapiens; settings: Homo sapiens, NCI-H358;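 further: growth inhibition of NCI-H358 human cells, read out with a cell viability assay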
Description: SANGER: Inhibition of human NCI-H358 cell growth in a cell viability assay.

[15] = system: NCI-H661; type: functional, cell-based, Homo sapiens; settings: Homo sapiens, NCI-H661;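 further: cell viability assay read-out, IC50 being the concentration that inhibits growth of the cells by half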
Description: SANGER: Inhibition of human NCI-H661 cell growth in a cell viability assay.

[16] = system: PC-3; type: functional, cell-based, Homo sapiens; settings: Homo sapiens, PC-3;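 further: cell viability assay measuring growth inhibition of PC-3 cells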
Description: SANGER: Inhibition of human PC-3 cell growth in a cell viability assay.

[17] = system: SJRH30; type: functional, cell-based, Homo sapiens; settings: Homo sapiens, SJRH30;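 further: growth inhibition of human SJRH30 cells, read out with a cell viability assay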
Description: SANGER: Inhibition of human SJRH30 cell growth in a cell viability assay.

[18] = system: SK-MEL-30; type: functional, cell-based, Homo sapiens; settings: Homo sapiens, SK-MEL-30;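 further: growth inhibition of SK-MEL-30 cells, determined with a cell viability assay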
Description: SANGER: Inhibition of human SK-MEL-30 cell growth in a cell viability assay.

[19] = system: SNU-387; type: functional, cell-based, Homo sapiens; settings: Homo sapiens, SNU-387
Description: SANGER: Inhibition of human SNU-387 cell growth in a cell viability assay.

[20] = system: SW1088; type: functional, cell-based, Homo sapiens; settings: Homo sapiens, SW1088;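 further: growth inhibition of human SW1088 cells, read out by a cell viability assay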
Description: SANGER: Inhibition of human SW1088 cell growth in a cell viability assay.

[21] = system: SW13; type: functional, cell-based, Homo sapiens; settings: Homo sapiens, SW13;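 further: IC50 is inhibition of SW13 cell growth, read out with a cell viability assay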
Description: SANGER: Inhibition of human SW13 cell growth in a cell viability assay.

[22] = system: SW1417; type: functional, cell-based, Homo sapiens; settings: Homo sapiens, SW1417;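 further: growth inhibition of human SW1417 cells, read out with a cell viability assay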
Description: SANGER: Inhibition of human SW1417 cell growth in a cell viability assay.

[23] = system: SW756; type: functional, cell-based, Homo sapiens; settings: Homo sapiens, SW756;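 further: growth inhibition of human SW756 cells, read out with a cell viability assay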
Description: SANGER: Inhibition of human SW756 cell growth in a cell viability assay.

[24] = system: CWR22R; type: functional, cell-based, Homo sapiens; settings: Homo sapiens, 22Rv1;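 further: growth inhibition of 22Rv1 cells, read out with a cell viability assay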
Description: SANGER: Inhibition of human 22RV1 cell growth in a cell viability assay.

[25] = system: 639-V; type: functional, cell-based, Homo sapiens; settings: Homo sapiens, 639-V;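 further: growth inhibition of 639-V cells, read out with a cell viability assay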
Description: SANGER: Inhibition of human 639-V cell growth in a cell viability assay.

[26] = system: 8505C; type: functional, cell-based, Homo sapiens; settings: Homo sapiens, 8505C
Description: SANGER: Inhibition of human 8505C cell growth in a cell viability assay.

[27] = system: A204; type: functional, cell-based, Homo sapiens; settings: Homo sapiens, A204;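 further: growth inhibition of human A204 cells, read out with a cell viability assay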
Description: SANGER: Inhibition of human A204 cell growth in a cell viability assay.

[28] = system: BHY; type: functional, cell-based, Homo sapiens; settings: Homo sapiens, BHY;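 further: cell growth inhibition read out by a viability assay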
Description: SANGER: Inhibition of human BHY cell growth in a cell viability assay.

[29] = system: BT-549; type: functional, cell-based, Homo sapiens; settings: Homo sapiens, BT-549
Description: SANGER: Inhibition of human BT-549 cell growth in a cell viability assay.

[30] = system: CAL-33; type: functional, cell-based, Homo sapiens; settings: Homo sapiens, CAL-33;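 further: growth inhibition of CAL-33 cells, read out with a cell viability assay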
Description: SANGER: Inhibition of human CAL-33 cell growth in a cell viability assay.

[31] = system: CAL-51; type: functional, cell-based, Homo sapiens; settings: Homo sapiens, CAL-51;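 further: human CAL-51 cell line, growth inhibition read out via a cell viability assay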
Description: SANGER: Inhibition of human CAL-51 cell growth in a cell viability assay.

[32] = system: CAL-62; type: functional, cell-based, Homo sapiens; settings: Homo sapiens, CAL-62;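 further: growth inhibition of CAL-62 cells, read out with a cell viability assay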
Description: SANGER: Inhibition of human CAL-62 cell growth in a cell viability assay.

[33] = system: U2OS; type: functional, cell-based, Homo sapiens, U-2-OS; settings: Homo sapiens, U2OS;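 further: growth inhibition of human U-2-OS cells, determined with a cell viability assay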
Description: SANGER: Inhibition of human U-2-OS cell growth in a cell viability assay.

[34] = system: UACC-893; type: functional, cell-based, Homo sapiens; settings: Homo sapiens, UACC-893
Description: SANGER: Inhibition of human UACC-893 cell growth in a cell viability assay.

Row | SMILES | IC50 [1] | IC50 [2] | IC50 [3] | IC50 [4] | IC50 [5] | IC50 [6] | IC50 [7] | IC50 [8] | IC50 [9] | IC50 [10] | IC50 [11] | IC50 [12] | IC50 [13] | IC50 [15] | IC50 [16] | IC50 [17] | IC50 [18] | IC50 [19] | IC50 [20] | IC50 [22] | other results
1 | COc1cc2c(Nc3ccc(NC(=O)c4ccccc4)cc3)ncnc2cc1OCCCN1CCOCC1 | > 4 µM | 3.29 µM | 3.18 µM | > 4 µM | > 4 µM | > 4 µM | > 4 µM | > 4 µM | 1.75 µM | 3.74 µM | > 4 µM | > 4 µM | > 4 µM | 2.99 µM | > 4 µM | > 4 µM | > 4 µM | > 4 µM | > 4 µM | > 4 µM | IC50 [14]: > 4 µM; IC50 [21]: > 4 µM; IC50 [23]: > 4 µM; IC50 [24]: > 4 µM; IC50 [25]: > 4 µM; IC50 [26]: > 4 µM; IC50 [27]: > 4 µM; IC50 [28]: > 4 µM; IC50 [29]: > 4 µM; IC50 [30]: 1.73 µM; IC50 [31]: 1.84 µM; IC50 [32]: > 4 µM; IC50 [33]: > 4 µM; IC50 [34]: > 4 µM
2 | CC(C)c1ccccc1Cc1cc(C(=O)Nc2ccc(S(=O)(=O)c3ccccc3C(C)(C)C)cc2)c(O)c(O)c1O | 0.711 µM | 0.00382 µM | 0.28 µM | 0.782 µM | 1.46 µM | 0.192 µM | 0.21 µM | 2.83 µM | 0.0293 µM | 1 µM | 0.745 µM | 0.267 µM | 0.447 µM | 0.202 µM | 0.715 µM | 0.137 µM | 0.038 µM | 0.248 µM | 0.455 µM | 1.91 µM | IC50 [14]: 1.49 µM; IC50 [21]: 0.204 µM; IC50 [23]: 0.112 µM; IC50 [24]: 1.03 µM; IC50 [25]: 0.521 µM; IC50 [26]: 0.221 µM; IC50 [27]: 0.0978 µM; IC50 [28]: 0.702 µM; IC50 [29]: 0.68 µM; IC50 [30]: 0.817 µM; IC50 [31]: 0.349 µM; IC50 [32]: 0.308 µM; IC50 [33]: 0.552 µM; IC50 [34]: 1.43 µM
3 | CC(C)CCN1c2nc(Nc3cc(F)c(O)c(F)c3)ncc2N(C)C(=O)C1C (configuration not stated) | > 5 µM | 2.66 µM | > 5 µM | > 5 µM | > 5 µM | 2.51 µM | > 5 µM | > 5 µM | > 5 µM | > 5 µM | > 5 µM | > 5 µM | > 5 µM | > 5 µM | 4.95 µM | > 5 µM | > 5 µM | > 5 µM | > 5 µM | > 5 µM | IC50 [14]: > 5 µM; IC50 [21]: > 5 µM; IC50 [23]: > 5 µM; IC50 [24]: > 5 µM; IC50 [25]: 2.72 µM; IC50 [26]: 4.46 µM; IC50 [27]: > 5 µM; IC50 [28]: > 5 µM; IC50 [29]: > 5 µM; IC50 [30]: 3.53 µM; IC50 [31]: 4.87 µM; IC50 [32]: 0.882 µM; IC50 [33]: > 5 µM; IC50 [34]: > 5 µM
4 | Nc1cccc2c1CN(C1CCC(=O)NC1=O)C2=O (configuration not stated) [LENALIDOMIDE] | > 5 µM | > 5 µM | > 5 µM | > 5 µM | > 5 µM | > 5 µM | > 5 µM | > 5 µM | > 5 µM | > 5 µM | > 5 µM | > 5 µM | > 5 µM | > 5 µM | > 5 µM | > 5 µM | > 5 µM | > 5 µM | > 5 µM | > 5 µM | IC50 [14]: > 5 µM; IC50 [21]: > 5 µM; IC50 [23]: > 5 µM; IC50 [24]: > 5 µM; IC50 [25]: > 5 µM; IC50 [26]: > 5 µM; IC50 [27]: > 5 µM; IC50 [28]: > 5 µM; IC50 [29]: > 5 µM; IC50 [30]: > 5 µM; IC50 [31]: > 5 µM; IC50 [32]: > 5 µM; IC50 [33]: > 5 µM; IC50 [34]: > 5 µM
5 | Cn1cnc2c(F)c(Nc3ccc(Br)cc3Cl)c(C(=O)NOCCO)cc21 [SELUMETINIB] | 3.13 µM | 2.38 µM | > 4 µM | > 4 µM | 0.873 µM | > 4 µM | > 4 µM | 0.0369 µM | > 4 µM | > 4 µM | > 4 µM | > 4 µM | > 4 µM | > 4 µM | > 4 µM | > 4 µM | 0.782 µM | > 4 µM | > 4 µM | > 4 µM | IC50 [23]: > 4 µM; IC50 [24]: > 4 µM; IC50 [25]: > 4 µM; IC50 [26]: > 4 µM; IC50 [27]: 1.52 µM; IC50 [28]: 1.81 µM; IC50 [29]: > 4 µM; IC50 [30]: 1.55 µM; IC50 [31]: > 4 µM; IC50 [32]: 1.52 µM; IC50 [33]: > 4 µM
